The record followed here is PubChem BioAssay AID330 (DTP/NCI, 2004).

SMILES strings stand for the structures. “And” between values parts separate entries of the source, which are not always exact repeats. Equal entries are not always repeated. Inconclusive results and toxic doses are left out.

The experiment has as its system P388 leukemia ip, CD2F1 mice, survival T/C. The experiment can be described thus: NCI In Vivo Anticancer Drug Screen. Data for tumor model P388 Leukemia (intraperitoneal) in CD2F1 (CDF1) mice. The conditions noted are these: endpoint: median survival time, higher = longer survival. The method, boiled down: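 Mice carrying the transplanted tumor received test compound or vehicle. Survival was recorded in each group, and the value is the treated-group measurement divided by that of the vehicle-treated control group.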

The mark [1] stands for this setting: dose: 12.5 mg/kg/injection, schedule: Q01DX009 (ip), vehicle: Klucel (hydroxypropylcellulose) (HPC).
The mark [2] stands for this setting: dose: 25.0 mg/kg/injection, schedule: Q01DX009 (ip), vehicle: Klucel (hydroxypropylcellulose) (HPC).
Setting [3] is: dose: 50.0 mg/kg/injection, schedule: Q01DX009 (ip), vehicle: saline with Tween-80.
The mark [4] stands for this setting: dose: 100.0 mg/kg/injection, schedule: Q01DX009 (ip), vehicle: saline with Tween-80.
[5] abbreviates: dose: 200.0 mg/kg/injection, schedule: Q01DX009 (ip), vehicle: saline with Tween-80.
Setting [6] is: dose: 12.5 mg/kg/injection, schedule: Q01DX005 (ip), vehicle: saline.
Setting [7] is: dose: 25.0 mg/kg/injection, schedule: Q01DX005 (ip), vehicle: saline.
[8] abbreviates: dose: 50.0 mg/kg/injection, schedule: Q01DX005 (ip), vehicle: saline with Tween-80.
The mark [9] stands for this setting: dose: 50.0 mg/kg/injection, schedule: Q01DX005 (ip), vehicle: saline.
Where [10] appears, read: dose: 100.0 mg/kg/injection, schedule: Q01DX005 (ip), vehicle: saline with Tween-80.
Setting [11] is: dose: 200.0 mg/kg/injection, schedule: Q01DX005 (ip), vehicle: saline with Tween-80.
Where [12] appears, read: dose: 25.0 mg/kg/injection, schedule: Q01DX009 (ip), vehicle: saline with Tween-80.
The mark [13] stands for this setting: dose: 400.0 mg/kg/injection, schedule: Q01DX009 (ip), vehicle: saline with Tween-80.
Setting [14] is: dose: 100.0 mg/kg/injection, schedule: Q01DX001 (ip), vehicle: saline with Tween-80.
Setting [15] is: dose: 200.0 mg/kg/injection, schedule: Q01DX001 (ip), vehicle: saline with Tween-80.
The mark [16] stands for this setting: dose: 400.0 mg/kg/injection, schedule: Q01DX001 (ip), vehicle: saline with Tween-80.
Setting [17] is: dose: 50.0 mg/kg/injection, schedule: Q01DX005 (ip), vehicle: Klucel (hydroxypropylcellulose) (HPC).
Where [18] appears, read: dose: 100.0 mg/kg/injection, schedule: Q01DX005 (ip), vehicle: Klucel (hydroxypropylcellulose) (HPC).
The mark [19] stands for this setting: dose: 100.0 mg/kg/injection, schedule: Q04DX002 (ip), vehicle: saline with Tween-80.

Regarding `c1ccc(-c2ccc(-c3ccccc3)cc2)cc1`, the T/C is, setting by setting: under setting [1], 109 % of control; under setting [2], 97 % of control; (dose: 50.0 mg/kg/injection, schedule: Q01DX009 (ip), vehicle: Klucel (hydroxypropylcellulose) (HPC)) 98 % of control; (dose: 100.0 mg/kg/injection, schedule: Q01DX009 (ip), vehicle: Klucel (hydroxypropylcellulose) (HPC)) 98 % of control.

As to `COc1cc(/C=C2\CCC/C(=C\c3ccc(OCC4CO4)c(OC)c3)C2=O)ccc1OCC1CO1` (stereo not given), the T/C runs as follows: under setting [3], 101 % of control; under setting [4], 95 % of control; under setting [5], 94 % of control.

Turning to `O=C1C=CC(=O)C1=Cc1ccccc1`, the T/C (dose: 2.5 mg/kg/injection, schedule: Q04DX002 (ip), vehicle: saline with Tween-80) was 95 % of control and the T/C (dose: 5.0 mg/kg/injection, schedule: Q04DX002 (ip), vehicle: saline with Tween-80) is 97 % of control.

As for `N=c1c2ncn(C3OC(CO)C(O)C3O)c2ncn1O` (stereo not given), the T/C runs as follows: (dose: 6.25 mg/kg/injection, schedule: Q01DX005 (ip), vehicle: saline) 97 % of control; under setting [6], 101 % of control; under setting [7], 101 % of control and 112 % of control; under setting [8], 105 % of control; under setting [9], 112 % of control and 94 % of control; under setting [10], 100 % of control. Further, the T/C under setting [11] is 108 % of control.

As to `c1cc2nc(-c3ccc4nc(C5=NCCN5)[nH]c4c3)[nH]c2cc1C1=NCCN1`, the T/C under setting [6] is 90 % of control; the T/C under setting [7] was 87 % of control and 90 % of control; the T/C under setting [9] was 99 % of control and 91 % of control and 97 % of control.

`CN1C(=O)CC(Sc2ccccc2)c2ccccc21` (stereo not given): the T/C by setting is: under setting [12], 96 % of control; under setting [3], 97 % of control; under setting [4], 93 % of control.

With `O=C([O-])[O-].O=[N+]([O-])O.[Co+3].[NH2-].[NH2-].[NH2-].[NH2-]`, the T/C is 122 % of control under setting [4], 113 % of control under setting [5] and 100 % of control under setting [13].

On to `CNCCN1CCC(Cc2ccccc2)CC1`, for which the T/C was 100 % of control (dose: 50.0 mg/kg/injection, schedule: Q01DX009 (ip), vehicle: saline) and 100 % of control (dose: 100.0 mg/kg/injection, schedule: Q01DX009 (ip), vehicle: saline).

Consider `Cc1ccc(CN2CCN(Cc3ccc(C)o3)C(C)C2)o1` (stereo not given), for which the T/C runs as follows: under setting [9], 101 % of control; (dose: 100.0 mg/kg/injection, schedule: Q01DX005 (ip), vehicle: saline) 101 % of control; (dose: 200.0 mg/kg/injection, schedule: Q01DX005 (ip), vehicle: saline) 100 % of control.

Take `COc1cc(C=Nc2ccc3c(c2)OCO3)cc(OC)c1OC`: the T/C (dose: 60.0 mg/kg/injection, schedule: Q01DX005 (ip), vehicle: saline with Tween-80) is 103 % of control; the T/C (dose: 120.0 mg/kg/injection, schedule: Q01DX005 (ip), vehicle: saline with Tween-80) was 100 % of control; the T/C (dose: 240.0 mg/kg/injection, schedule: Q01DX005 (ip), vehicle: saline with Tween-80) was 86 % of control.

For `O=S(=O)(O)CC[S][Sn]([S]CCS(=O)(=O)O)([c]1ccccc1)[c]1ccccc1` (tested in a mixture with another compound), the T/C is, setting by setting: (dose: 1.87 mg/kg/injection, schedule: Q01DX005 (ip), vehicle: Klucel (hydroxypropylcellulose) (HPC)) 121 % of control; (dose: 3.75 mg/kg/injection, schedule: Q01DX005 (ip), vehicle: Klucel (hydroxypropylcellulose) (HPC)) 152 % of control.

Turning to `FC(F)(F)C(F)(F)C(F)(F)c1nnc(-c2ccc(Cl)cc2Cl)o1`, the T/C by setting is: under setting [14], 95 % of control; under setting [15], 100 % of control; under setting [16], 96 % of control.

For the molecule `CN1Cc2ccccc2[C@H]2C(c3ccccc3)=NN(c3ccccc3)[C@H]21`, the T/C is, setting by setting: under setting [8], 103 % of control; under setting [10], 94 % of control; under setting [11], 92 % of control.

In the case of `C[N+]1(C[Si](C)(C)c2ccccc2)CCOCC1`, the T/C runs as follows: under setting [6], 105 % of control; under setting [7], 103 % of control; under setting [9], 102 % of control and 104 % of control.

As for `CN(C)c1ccc2nc3c(C(=O)O)cc(=O)c(O)c-3oc2c1`, the T/C reads like this: under setting [17], 103 % of control; under setting [18], 108 % of control.

On to `CN(C)CCC=C1c2ccccc2C(C)(C)c2ccccc21`, for which the T/C by setting is: under setting [17], 98 % of control; under setting [18], 97 % of control.

In the case of `NC1=NC(=O)C(N=O)C(=O)N1` (stereo not given), the T/C by setting is: under setting [19], 99 % of control; (dose: 200.0 mg/kg/injection, schedule: Q04DX002 (ip), vehicle: saline with Tween-80) 107 % of control; (dose: 400.0 mg/kg/injection, schedule: Q04DX002 (ip), vehicle: saline with Tween-80) 106 % of control.

For `COC(=O)c1ccc(SSc2ccc(C(=O)OC)cc2[N+](=O)[O-])c([N+](=O)[O-])c1`, the T/C was 91 % of control under setting [4]; 90 % of control (dose: 100.0 mg/kg/injection, schedule: Q04DX003 (ip), vehicle: saline with Tween-80); 100 % of control under setting [5]; 95 % of control (dose: 200.0 mg/kg/injection, schedule: Q04DX003 (ip), vehicle: saline with Tween-80); 91 % of control under setting [13]; 90 % of control (dose: 400.0 mg/kg/injection, schedule: Q04DX003 (ip), vehicle: saline with Tween-80).

For `CC1=C(O)c2[nH]c(Cl)c(C=O)c2C(=O)C1=O`, the T/C reads like this: under setting [14], 100 % of control; under setting [15], 98 % of control; under setting [16], 98 % of control.

As for `CCOC(=O)c1c(C)[nH]c(=O)c(C#N)c1NC1CCCCC1`, the T/C runs as follows: (dose: 25.0 mg/kg/injection, schedule: Q04DX002 (ip), vehicle: saline with Tween-80) 98 % of control; (dose: 50.0 mg/kg/injection, schedule: Q04DX002 (ip), vehicle: saline with Tween-80) 100 % of control; under setting [19], 92 % of control.

As to `Clc1ccc(CN2COc3c(ccc4cccnc34)C2)c(Cl)c1`, the T/C is, setting by setting: (dose: 100.0 mg/kg/injection, schedule: Q04DX003 (ip), vehicle: Klucel (hydroxypropylcellulose) (HPC)) 95 % of control; (dose: 200.0 mg/kg/injection, schedule: Q04DX003 (ip), vehicle: Klucel (hydroxypropylcellulose) (HPC)) 104 % of control; (dose: 400.0 mg/kg/injection, schedule: Q04DX003 (ip), vehicle: Klucel (hydroxypropylcellulose) (HPC)) 117 % of control.

On to `O=C1NC(=O)C2(CCCc3ccc(N(CCO)CCO)cc32)N1` (stereo not given), for which the T/C (dose: 50.0 mg/kg/injection, schedule: Q01DX009 (ip), vehicle: DMSO) was 106 % of control; the T/C (dose: 100.0 mg/kg/injection, schedule: Q01DX009 (ip), vehicle: DMSO) was 103 % of control; the T/C (dose: 200.0 mg/kg/injection, schedule: Q01DX009 (ip), vehicle: DMSO) was 106 % of control.

Turning to `O=[N+]([O-])c1cc(S(=O)(=O)c2ccc(F)c([N+](=O)[O-])c2)ccc1F`, the T/C was 102 % of control (dose: 3.12 mg/kg/injection, schedule: Q01DX009 (ip), vehicle: Klucel (hydroxypropylcellulose) (HPC)); 108 % of control (dose: 6.25 mg/kg/injection, schedule: Q01DX009 (ip), vehicle: Klucel (hydroxypropylcellulose) (HPC)); 114 % of control under setting [1]; 108 % of control under setting [2].

In the case of `O=C(CBr)c1cccc([N+](=O)[O-])c1`, the T/C by setting is: (dose: 6.25 mg/kg/injection, schedule: Q01DX009 (ip), vehicle: saline with Tween-80) 101 % of control; (dose: 12.5 mg/kg/injection, schedule: Q01DX009 (ip), vehicle: saline with Tween-80) 100 % of control; under setting [12], 109 % of control; under setting [3], 100 % of control.

Take `COc1ccc(/C=N\N2CN(C(CC(N)=O)C(=O)O)C(O)(CCl)N=C2N)cc1OC` (stereo not given): the T/C is, setting by setting: (dose: 60.0 mg/kg/injection, schedule: Q01DX005 (ip), vehicle: saline) 95 % of control; (dose: 120.0 mg/kg/injection, schedule: Q01DX005 (ip), vehicle: saline) 98 % of control; (dose: 240.0 mg/kg/injection, schedule: Q01DX005 (ip), vehicle: saline) 98 % of control.
